{
  "source": "patent US4686229A",
  "about": "“1,4-dihydropyridines” (Bayer Aktiengesellschaft, priority 1984, dated 1987)",
  "data": [
    {"system": "synthesis of PGI2", "experiment": "Prostacyclin stimulation in whole blood (collagen-induced PGI2 formation, 6-keto-PGF1 alpha by radioimmunoassay)", "type": "cell-based", "from_the_text": "The 1,4-dihydropyridines to be used according to the invention also stimulate the synthesis of PGI2. In contrast to thromboxane, which has a vasoconstricting action and initiates platelet aggregation, PGI^2 has a vasodilating action and inhibits platelet aggregation.\nThe formation of PGI2 can be induced in whole blood by collagen. The endoperoxides formed in platelets are probably converted into PGI2 by […]. The stable end product of the PGI2 conversion, 6-keto-PGF1 α, is determined radioimmunologically.", "values": [
      {"smiles": "CC1=C(C(=O)OCCCc2cccnc2)C(c2ccc(CO)cc2)C(C(=O)OCCCc2cccnc2)=C(C)N1", "note": "[Example 1, Di-3-(pyrid-3-yl)-propyl 1,4-dihydro-4-(4-hydroxymethylphenyl)-2,6-dimethylpyridine-3,5-dicarboxylate]", "Stimulation (%) (prostacyclin stimulation)": "158%"},
      {"smiles": "CC1=C(C(=O)OCCCc2cccnc2)CC(C(=O)OCCCc2cccnc2)=C(C)N1", "note": "[Example 4, Di-3-(pyrid-3-yl)-propyl 1,4-dihydro-2,6-dimethylpyridine-3,5-dicarboxylate]", "Stimulation (%) (prostacyclin stimulation)": "~ 50%"},
      {"smiles": "COC(=O)C1C(C(=O)OCCCc2cccnc2)=C(C)NC(C)=C1C(=O)OCCCc1cccnc1", "note": "[Example 5, 4-Methyl 3,5-di-3-(pyrid-3-yl)-propyl 1,4-dihydro-2,6-dimethyl-pyridine-3,4,5-tricarboxylate]", "Stimulation (%) (prostacyclin stimulation)": "100%"},
      {"smiles": "CC1=C(C(=O)OCCCc2cccnc2)C(c2ccc(C(=O)NCc3cccnc3)cc2)C(C(=O)OCCCc2cccnc2)=C(C)N1", "note": "[Example 10, Di-3-(pyrid-3-yl)-propyl 1,4-dihydro-2,6-dimethyl-4-[4-N-(pyrid-3-ylmethyl)-carbamoylphenyl]-pyridine-3,5-dicarboxylate]", "Stimulation (%) (prostacyclin stimulation)": "~ 50%"},
      {"smiles": "CC1=C(C(=O)OCCCc2cccnc2)C(c2ccc(C(=O)NCc3ccco3)cc2)C(C(=O)OCCCc2cccnc2)=C(C)N1", "note": "[Example 11, Di-3-(pyrid-3-yl)-propyl 4-[4-N-(2-furylmethyl)-carbamoylphenyl]-1,4-dihydro-2,6-dimethyl-pyridine-3,5-dicarboxylate]", "Stimulation (%) (prostacyclin stimulation)": "~ 100%"}
    ]}
  ]
}
